Experimental data from patent publication US7202023B2 (priority 2000, dated 2007).
Values after ≈ are worked out from the molar mass of the structure shown.

Assays:
[1] = system: panBCD operon (panB promoter); experiment: RNA (transcriptional) profiling of panB, panC, panD mRNA levels in treated bacterial cells; format: cell-based, B. subtilis; details: LB medium, 37° C.
[2] = system: B. subtilis reporter strain PY79(amy::PpanB::lacZ, cat); experiment: Minimum inhibitory concentration (MIC) in 96-well microtiter plate, OD600 after about 18 hours; format: cell-based; details: Bacillus subtilis
Experimental: The minimum inhibitory concentrations (MIC) for trimethoprim and sulfamethoxazole were determined for each of the reporter strains. To determine the MIC, a compound of interest (e.g., trimethoprim or sulfamethoxazole) was placed in a 96-well microtiter plate such that the concentration of the compound varies in various wells of the plate (e.g., by using a series of 2-fold dilutions of the compound). Approximately 5,000 cells from a logarithmically-growing culture (e.g., the B. subtilis strain PY79) in Luria broth were added to each well (e.g., in a volume of 50–80 μl). The plate then was incubated at 37° C. for approximately 18 hours. The OD600 was then read to measure cell growth in each well of the plate. The lowest concentration of the compound that leads to complete killing of the culture (i.e., the concentration of compound for which the OD600 nm is equal to a control well that contains only media and the test compound) is deemed the MIC for the particular compound and bacterial strain.

[3] = system: PABA uptake; details: 14C-PABA, Herrington (1994) Anal Biochem 216:427–430; cited from earlier work
[4] = 10 μg/ml trimethoprim, 90 minutes

SMILES	panD mRNA levels induced ([1]; 0.5 mg/ml sulfamethoxazole, 80 minutes) [fold]	MIC [2] [µg/mL]	PABA uptake [3]	panB mRNA levels induced [1, 4] [fold]	panC mRNA levels induced [1, 4] [fold]	panD mRNA levels induced [1, 4] [fold]
Cc1cc(NS(=O)(=O)c2ccc(N)cc2)no1 [sulfamethoxazole]	148	500 (≈ 1970 µM)				
Nc1ccc(S(=O)(=O)Nc2nccs2)cc1 [sulfathiazole]			inhibited			
COc1cc(Cc2cnc(N)nc2N)cc(OC)c1OC [trimethoprim]		3 (≈ 10.3 µM)	inhibited	10	54	38
